Reference: publication PMC11109052, “Metabolism characterization and toxicity of N-hydap, a marine candidate drug for lung cancer therapy by LC–MS method” (Natural Products and Bioprospecting, 2024)

Columns and labels:
[1] = system: HLMs; assay: Kinetics of N-hydap glucuronidation in HLMs; format: in vitro ADME, human; settings: HLM
Procedure: (§1) Various microsomes including HLMs, HKMs, HIMs, RLMs, RKMs, MLMs and MKMs were involved in CYP and UGT reactions of N-hydap. A typical CYP incubation mixture included 0.5 mg/mL microsomes protein, 3.3 mM glucose-6-phosphate, 3.3 mM MgCl2, 0.4 U/mL glucose-6-phosphate dehydrogenase, and N-hydap (1, 2.5, or 10 μM) in the 50 mM potassium phosphate buffer (KPI, pH 7.4). The incubation mixture was preincubated at 37 °C for 5 min, and the reaction was started by adding NADP to form a NADPH-regenerating system. Simultaneously, the classic UGT reaction system consisted of 50 mM KPI, 5 mM MgCl2, 0.5 mg/mL microsomes, 0.125 mg/mL alamethicin, and 5.25 mg/mL saccharolactone. The reaction was initiated after supplying UDPGA. The CYP and UGT mixtures were incubated at 37 °C in a shaking water bath (80 rpm) for 1.5 h to enhance metabolite formation. To terminate the reaction, an ice-cold solution of Tes (50 ng/mL, dissolved in methanol and used as an internal standard) was added to half of the mixture volume. […]
(§2) The substrate concentrations used for HLMs were 0.05, 0.5, 2, 2.5, 5, 10, 25, 50, and 100 μM. […] The rates of N-hydap-G by enzymes were expressed as nmol/mg/min, representing the amount of metabolites formed per minute per milligram of protein. Kinetic parameters were determined by analyzing the Eadie–Hofstee plots. […]

[2] = system: RoRγ; set-up: method as in PMID 35259480; settings: cited from earlier work
[3] = system: HKMs; assay: Kinetics of N-hydap glucuronidation in HKMs; format: in vitro ADME, human; settings: HKM
Procedure: as §1, §2

[4] = system: RLMs; assay: Kinetics of N-hydap glucuronidation in RLMs; format: in vitro ADME, rat; settings: RLM
Procedure: In this study, the rats were executed by drawing blood from the abdominal aorta and mice were sacrificed with cervical dislocation before the liver and kidneys were excised. The liver and kidneys were removed, and washed with chilled cleansing solution (contains 8 mM KH2PO4, 5.6 mM EDTA·K2·2H2O, 1 mM DTT and 229.6 μM PMSF), homogenized in a tissue homogenate buffer with a pH of 7.4, (consisting of […], 8 mM K2HPO4, 250 mM sucrose, 1 mM EDTA·K2·2H2O and 229.6 μM PMSF). Subsequently, the homogenate was centrifuged at 10,400 rpm at 4 °C for 15 min, and the supernatant was then centrifuged at 35,000 rpm at 4 °C for 60 min. A 250 mM sucrose buffer was added to the pellet to reconstitute and the resuspension was stored at − 80 °C until use. Microsome protein concentrations were measured by Omni-Easy™ Instant BCA Protein Assay Kit.
Various microsomes including HLMs, HKMs, HIMs, RLMs, RKMs, MLMs and MKMs were involved in CYP and UGT reactions of N-hydap. […]
as §2

[5] = system: recombinant human CYP enzymes (CYP1A2, CYP2B6, CYP2C9, CYP2C19, CYP2D6, CYP3A4, CYP4A11 and CYP4F2); assay: Incubation with 8 recombinant human CYP enzymes; format: in vitro ADME; settings: N-hydap 2.5 μM; enzyme concentrations of 2 and 4 μg/mL; all recombinant CYPs
Procedure: (§3) Incubation of N-hydap (2.5 μM) with eight recombinant human CYP enzymes (CYP1A2, CYP2B6, CYP2C9, CYP2C19, CYP2D6, CYP3A4, CYP4A11 and CYP4F2) at three enzyme concentrations (2, 4, and 20 μg/mL) was conducted following the same procedure as described above for microsomes. Subsequently, incubation with N-hydap (1, 2.5, and 6 μM) and twelve recombinant human UGT isoforms (UGT1A1, UGT1A3, UGT1A4, UGT1A6, UGT1A7, UGT1A8, UGT1A9, UGT1A10, UGT2B4, UGT2B7, UGT2B15 and UGT2B17) was performed, with the enzyme concentration used at 2 μg/mL. All reactions were carried out in triplicate.

[6] = target: T1, recombinant human CYP enzymes (CYP1A2, CYP2B6, CYP2C9, CYP2C19, CYP2D6, CYP3A4, CYP4A11 and CYP4F2) (Homo sapiens, UniProt P11712); assay: Incubation with 8 recombinant human CYP enzymes; format: in vitro ADME; settings: Table 4 experimental column
T1 construct: purchased Cypex (Scotland, UK)
Procedure: as §3

[7] = target: T2, recombinant human CYP enzymes (CYP1A2, CYP2B6, CYP2C9, CYP2C19, CYP2D6, CYP3A4, CYP4A11 and CYP4F2) (Homo sapiens, UniProt P05177); assay: Incubation with 8 recombinant human CYP enzymes; format: in vitro ADME; settings: Table 4 experimental column
T2 construct: purchased Cypex (Scotland, UK)
Procedure: as §3

[8] = target: T3, recombinant human CYP enzymes (CYP1A2, CYP2B6, CYP2C9, CYP2C19, CYP2D6, CYP3A4, CYP4A11 and CYP4F2) (Homo sapiens, UniProt P08684); assay: Incubation with 8 recombinant human CYP enzymes; format: in vitro ADME; settings: Table 4 experimental column
T3 construct: purchased Cypex (Scotland, UK)
Procedure: as §3

T2 sequence (P05177 whole entry): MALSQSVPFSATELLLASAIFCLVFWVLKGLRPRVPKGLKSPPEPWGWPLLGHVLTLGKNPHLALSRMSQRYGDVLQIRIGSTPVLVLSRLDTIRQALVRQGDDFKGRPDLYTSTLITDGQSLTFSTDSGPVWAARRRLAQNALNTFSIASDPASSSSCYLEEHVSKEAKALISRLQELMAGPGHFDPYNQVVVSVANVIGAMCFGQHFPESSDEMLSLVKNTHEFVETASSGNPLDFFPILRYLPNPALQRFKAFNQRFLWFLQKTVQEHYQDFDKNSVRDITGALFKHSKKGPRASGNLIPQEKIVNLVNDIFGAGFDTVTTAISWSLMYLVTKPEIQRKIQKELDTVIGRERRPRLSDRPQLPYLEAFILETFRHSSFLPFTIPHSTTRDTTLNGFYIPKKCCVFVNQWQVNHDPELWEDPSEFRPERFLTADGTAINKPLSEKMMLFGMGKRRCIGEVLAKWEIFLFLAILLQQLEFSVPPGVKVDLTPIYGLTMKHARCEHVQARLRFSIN
T1 sequence (P11712 whole entry): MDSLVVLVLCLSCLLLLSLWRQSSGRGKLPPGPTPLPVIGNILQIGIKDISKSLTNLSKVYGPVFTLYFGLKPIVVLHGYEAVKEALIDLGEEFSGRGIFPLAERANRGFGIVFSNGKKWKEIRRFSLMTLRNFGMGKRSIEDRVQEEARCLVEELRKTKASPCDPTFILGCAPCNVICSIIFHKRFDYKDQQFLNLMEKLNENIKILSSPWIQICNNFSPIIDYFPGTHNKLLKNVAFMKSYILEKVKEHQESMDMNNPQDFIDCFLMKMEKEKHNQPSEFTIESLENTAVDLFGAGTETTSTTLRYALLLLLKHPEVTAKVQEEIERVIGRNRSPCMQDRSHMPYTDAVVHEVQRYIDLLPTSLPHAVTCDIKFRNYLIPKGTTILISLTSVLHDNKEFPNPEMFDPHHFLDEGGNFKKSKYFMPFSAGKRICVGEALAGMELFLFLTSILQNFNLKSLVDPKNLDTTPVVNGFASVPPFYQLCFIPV
T3 sequence (P08684 whole entry): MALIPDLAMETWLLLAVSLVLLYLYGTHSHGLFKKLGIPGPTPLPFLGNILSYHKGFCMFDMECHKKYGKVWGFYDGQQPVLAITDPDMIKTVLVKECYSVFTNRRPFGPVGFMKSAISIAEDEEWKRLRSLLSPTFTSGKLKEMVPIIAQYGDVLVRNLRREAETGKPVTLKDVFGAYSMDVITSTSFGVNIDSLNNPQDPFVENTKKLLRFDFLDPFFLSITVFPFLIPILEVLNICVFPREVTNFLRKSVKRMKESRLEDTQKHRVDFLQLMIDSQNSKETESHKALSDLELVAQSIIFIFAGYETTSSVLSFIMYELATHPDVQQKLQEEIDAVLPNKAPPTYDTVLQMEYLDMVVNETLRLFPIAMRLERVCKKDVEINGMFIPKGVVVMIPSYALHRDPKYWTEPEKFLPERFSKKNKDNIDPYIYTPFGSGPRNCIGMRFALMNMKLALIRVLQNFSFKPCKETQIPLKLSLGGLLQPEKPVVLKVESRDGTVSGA

CC1CCC2C(C=CC(C)C2C(=O)c2c(O)c(C3(O)CCC(O)C4OC43)cn(O)c2=O)C1 (centres unmarked) [N-hydap, N-Hydroxyapiosporamide]
Km [1]: 116 µM
action on RoRγ [2]: RoRγ antagonist
Km [3]: 240 µM
Km [4]: 0.357 µM
prototype elimination rate [5]: less than 25%
CYP2C9 substrate, experimental results [6]: Yes
CYP1A2 substrate, experimental results [7]: Yes
CYP3A4 substrate, experimental results [8]: Yes
